Assays:
[1] = molecular target: T1, UvrB (Δ594-658, domains 1a-3) ([Bacillus] caldotenax, UniProt P56981, C145S/C211S/T251C/C303S); experiment: ATP hydrolysis in crystallo, seen in crystal structure; format: biochemical; settings: 2 mM ATP, 5 mM MgCl2, pH 6.5, 20 °C; protein disulfide-crosslinked to 20-mer dsDNA
T1 construct: residues 1-593 (domain 4 deleted, Δ594-658), all native Cys to Ser, His-tag cleaved with TEV protease, expressed in E. coli BL21(DE3) pLysS, disulfide-crosslinked to duplex DNA

[2] = molecular target: T1, UvrB (Δ594-658, domains 1a-3); experiment: X-ray crystal structure (UvrB-dsDNA-ADP·Pi); settings: crystals grown with 2 mM ATP and 5 mM MgCl2, pH 6.5, 20 °C; protein disulfide-crosslinked to 20-mer dsDNA; ATP binding site; 2.6 Å

T1 sequence (P56981 1-593 C145S/C211S/T251C/C303S): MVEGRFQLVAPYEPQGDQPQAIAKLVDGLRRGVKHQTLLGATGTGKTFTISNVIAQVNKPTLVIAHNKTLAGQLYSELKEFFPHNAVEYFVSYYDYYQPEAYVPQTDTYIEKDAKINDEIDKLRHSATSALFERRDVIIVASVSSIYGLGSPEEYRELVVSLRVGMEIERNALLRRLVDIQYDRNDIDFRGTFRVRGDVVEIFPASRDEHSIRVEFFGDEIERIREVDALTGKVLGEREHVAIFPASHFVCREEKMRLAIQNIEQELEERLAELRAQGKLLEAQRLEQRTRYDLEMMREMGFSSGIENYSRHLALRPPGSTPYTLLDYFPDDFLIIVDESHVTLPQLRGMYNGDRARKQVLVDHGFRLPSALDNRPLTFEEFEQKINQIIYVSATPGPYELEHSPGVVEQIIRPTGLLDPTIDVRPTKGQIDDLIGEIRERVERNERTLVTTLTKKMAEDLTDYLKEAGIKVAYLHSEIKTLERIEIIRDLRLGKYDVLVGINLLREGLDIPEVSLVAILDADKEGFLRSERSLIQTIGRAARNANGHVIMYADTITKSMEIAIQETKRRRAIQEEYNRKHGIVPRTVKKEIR

## Nc1ncnc2c1ncn2[C@@H]1O[C@H](COP(=O)(O)OP(=O)(O)OP(=O)(O)O)[C@@H](O)[C@H]1O [ATP]
[1]
  ATP hydrolysis in crystallo, seen in crystal structure: hence we conclude that the ATPase site retains activity in our crosslinked complex

## Nc1ncnc2c1ncn2[C@@H]1O[C@H](COP(=O)(O)OP(=O)(O)O)[C@@H](O)[C@H]1O [ADP]
[2]
  X-ray crystal structure (UvrB-dsDNA-ADP.Pi): the electron density corresponds to ADP plus inorganic phosphate

— PMC6750098, “Mechanism of DNA Lesion Homing and Recognition by the Uvr Nucleotide Excision Repair System” (Research, 2019)
